Measured values taken from patent publication US20120225093A1, “Abrogating HIV-1 Infection via Drug-Induced Reactivation of Apoptosis” (UNIVERSITY OF MEDICINE AND DENTISTRY OF NEW JERSEY, priority 2010, published 2012).

How the values were obtained:
HIV-1 = assay: Persistent PBMC infection model, long-term culture with drug withdrawal; type: cell-based; conditions: for rebound of HIV-1 infection after drug withdrawal: off-drug inspection period extending to 12 weeks
Protocol: Uninfected (5×10^6 cells) and infected PBMCs (0.5×10^6 cells) were co-incubated in a 25 ml culture flask at a final concentration of 0.22×10^6 cells/ml. Cultures were allowed to establish productive infection, defined by medium p24 at or above 250 pg/ml, and CPX was added. Cultures were replenished with Medium B and freshly isolated uninfected PBMCs on alternate days. For replacement of Medium B, half of the supernatant was gently exchanged without disturbing the cells, and the drug concentration was adjusted appropriately. For replacement with freshly isolated, stimulated and uninfected PBMCs, half of the cells and supernatant were removed and replaced with 2.5×10^6 cells in the proper volume of Medium B, with adjustment of the drug concentration. Cell-free supernatants were saved for p24 and viral RNA measurements.
p24 core antigen in the supernatant was quantified by ELISA (Retrotek HIV-1 p24™; ZeptoMetrix Corp.; Buffalo, N.Y.). HIV-1 RNA copy number in the supernatant was determined with a PCR-based and FDA-approved assay (Amplicor HIV-1 Monitor™; Roche Diagnostics Corp.; Indianapolis, Ind.). IFN-γ and IL-10 in the supernatant were determined by cytometric bead array (Human Th1/Th2 Cytokine Kit II™; BD Biosciences Pharmingen, San Jose, Calif.).
Next, assays were carried out to examine whether CPX can control established HIV-1 infection in primary cells. Long-term PBMC cultures were employed as a model for on-going, self-sustaining HIV-1 production. As before, infection was initiated by exposure to patient isolate-infected cells. To emulate the bulk flow of susceptible cells from a generative into an infective compartment that occurs in vivo, a replenishment protocol was followed. Freshly isolated uninfected primary cells were infused into the infected cultures at regular intervals during multi-month monitoring of viral parameters. HIV-1 RNA reached the range of 10^6 copies/ml within a week of patient isolate inoculation, and this robust infection was sustained for >3 months (FIG. 14; open squares).

[1] = human, in vivo, cited from earlier work
H9-HIV cells [2] = assay: Mitochondrial membrane potential (JC-1) in H9-HIV cells; type: cell-based; conditions: for Δψ collapse at low drug concentrations: 5 and 15 μM CPX, 50 and 100 μM DEF; for collapse of Δψ, infected versus uninfected cells: 24 hr, 30 μM CPX, 200 μM DEF
Protocol: (§1) The potential across the mitochondrial membrane of live cells was determined flow-cytometrically with the lipophilic cationic fluorochrome JC-1 (5,5′,6,6′-tetrachloro-1,1′,3,3′-tetraethylbenzimidazolcarbocyanine iodide) immediately after sample harvest (BD™ Mitoscreen Kit, BD Biosciences; San Diego, Calif.). DNA fragmentation was quantified flow-cytometrically, using a TUNEL (terminal deoxynucleotide transferase dUTP nick end-labeling) assay (APO-BRDU™; Phoenix Flow Systems; San Diego, Calif.) and a dual-color assay for annexin V binding and 7-AAD exclusion (Annexin V-PE 7-AAD Apoptosis Detection Kit I™; BD Biosciences Pharmingen, San Jose, Calif.). The apoptotic volume decrease of cells was assessed by the reduction of their diameter (VI-CELL™; Beckman Coulter; Fullerton, Calif.).
Next the effect of the drugs on apoptosis in H9 and H9-HIV cells was examined. Both CPX and DEF increased the collapse of Δψ in a manner that was dose-dependent and accentuated by viral infection (FIGS. 8E and F). […] Thus, exposure to CPX or DEF counteracted the HIV-mediated reduction of Δψ collapse and rendered infected cells more susceptible than uninfected cells to an early step in drug-induced apoptosis.

H9-HIV cells [3] = assay: Apoptosis in H9-HIV cells: annexin V binding, cell diameter, cell survival; type: cell-based; conditions: CPX 30 μM, DEF 200 μM; for increase in annexin-V binding, 7-AAD-negative cell population: by 24 hr
Protocol: Uninfected and uniformly HIV-1 (HTLV-IIIB) infected H9 cells, obtained from the NIH AIDS Research and References Reagent Program, were cultured at 37° C. in a humidified atmosphere (5% CO2, 95% humidity) using RPMI 1640 medium supplemented with 2 mM L-glutamine, […], […] and 20% fetal calf serum.
Viability, diameter, and cell number of PBMCs and H9 cells were measured by computerized image analysis of trypan blue exclusion (VI-CELL™; Beckman Coulter; Fullerton, Calif.). PBMCs were counted with an automated, multi-parameter hematology analyzer (CELL-DYN™; Abbott Laboratories, Abbott Park, Ill.).
as §1
First, whether both drugs elicit apoptosis in H9-HIV cells was determined. The cells were exposed to CPX or DEF, and annexin-V binding, cell diameter and cell survival were assayed in a time-dependent manner. By 24 hr, drug treatment elicited a ˜5-fold increase in the percentage of the 7-AAD-negative cell population capable of binding annexin-V to exposed membrane phospholipid phosphatidylserine, with little further increase at 48 hr (FIG. 8A). Both drugs elicited a decrease in mean cell diameter of ˜15% within 24 hr and ˜30% within 48 hr, indicating volume constriction characteristic of apoptosis but not necrosis (FIG. 8B). Concomitantly, cell survival decreased ˜2 fold at 24 hr and ˜5 fold at 48 hr (FIG. 8C).

[4] = target: T1, deoxyhypusine hydroxylase (Homo sapiens, UniProt Q9BU89); assay: Deoxyhypusine hydroxylase activity in H9-HIV cells (peptide-bound hypusine / deoxyhypusine); type: cell-based
T1 construct: endogenous in cells; host or cells: H9-HIV cells (H9 infected with HIV-1 HTLV-IIIB)
T1 sequence (Q9BU89 1-302): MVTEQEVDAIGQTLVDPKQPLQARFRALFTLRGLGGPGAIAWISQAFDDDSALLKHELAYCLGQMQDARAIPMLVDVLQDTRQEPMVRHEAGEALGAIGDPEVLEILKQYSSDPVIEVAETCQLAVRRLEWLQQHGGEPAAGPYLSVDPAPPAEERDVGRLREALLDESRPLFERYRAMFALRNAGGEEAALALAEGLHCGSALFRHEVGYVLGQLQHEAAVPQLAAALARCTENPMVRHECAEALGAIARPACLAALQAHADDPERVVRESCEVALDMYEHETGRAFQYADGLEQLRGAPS
From the text: FIGS. 11A-D are a set of diagrams showing drug-activated apoptosis and iron chelation. A. Covalent structures of the medicinal chelators DFOX and DEF, and of the antifungal agent CPX and its chelation homolog Agent P2. DFOX, CPX, and Agent P2 interact with iron via a hydroxamate moiety, similar to the chelating domain of DEF. Arrows indicate the uniform bidentate mode of metal binding. DFOX contains three of these moieties and is a hexadentate chelator. B. Effect of drugs and Agent P2 on the expression of iron-dependant (IRE; hatched bars) and retrovirally-encoded (HIV; filled bars) gene expression in transfected 293T cells. Results are expressed relative to untreated controls. C. […] Triangles, peptide-bound hypusine; squares, peptide-bound deoxyhypusine. D. Induction of apoptosis by CPX and by DFOX. H9-HIV cells were treated for 24 hr and then assayed by flow cytometry using TUNEL. Results are expressed as percentage of cells that are TUNEL-positive (±SEM).

[5] = CPX 30 μM from day 7 for one month, isolate #990,010

| SMILES | rebound of HIV-1 infection after drug withdrawal (HIV-1) | concentration in serum ([1]; po) [µM] | plasma levels ([1]; po) | Δψ collapse at low drug concentrations (H9-HIV cells [2]) | collapse of Δψ, infected versus uninfected cells (H9-HIV cells [2]) | decrease in cell survival (H9-HIV cells [3]; at 24 hr) [fold] | decrease in cell survival (H9-HIV cells [3]; at 48 hr) [fold] | increase in annexin-V binding, 7-AAD-negative cell population (H9-HIV cells [3]) [fold] | decrease in mean cell diameter (H9-HIV cells [3]; within 24 hr) [%] | decrease in mean cell diameter (H9-HIV cells [3]; within 48 hr) [%] | inhibition of deoxyhypusine hydroxylase activity / eIF5A hydroxylation [4] | day after which viral RNA was not detected (HIV-1; CPX 30 μM from day 7) [days] | day after which viral protein was not detected (HIV-1; CPX 30 μM from day 7) [days] | decline in HIV-1 RNA levels (HIV-1; CPX 30 μM from day 7) | level of p24 (HIV-1; [5]) | level of viral RNA (HIV-1; [5]) | systemic absorption [1] |
| --- | --- | --- | --- | --- | --- | --- | --- | --- | --- | --- | --- | --- | --- | --- | --- | --- | --- |
| Cc1c(O)c(=O)ccn1C [DEF, 3-hydroxy-1,2-dimethylpyridin-4(1H)-one] | productive infection does not return after drug removal | ≥ 250 | up to 350 μM | enhanced Δψ collapse even at low drug concentrations | significantly increased collapse of Δψ compared to uninfected cells | ~2 | ~5 | ~5 | ~15 | ~30 | – | – | – | – | – | – | – |
| Cc1ccn(O)c(=O)c1 [Agent P2, 1-hydroxy-4-methylpyridin-2[1H]-one] | – | – | – | – | – | – | – | – | – | – | failed to inhibit eIF5A hydroxylation in vivo or in vitro | – | – | – | – | – | – |
| Cc1cc(C2CCCCC2)n(O)c(=O)c1 [CPX, 6-cyclohexyl-1-hydroxy-4-methylpyridin-2[1H]-one] | productive infection does not return after drug removal | – | – | enhanced Δψ collapse even at low drug concentrations | significantly increased collapse of Δψ compared to uninfected cells | ~2 | ~5 | ~5 | ~15 | ~30 | Dose-dependent inhibition of deoxyhypusine hydroxylase activity | > 38 | > 21 | four orders of magnitude | to the limit of detectability | to the limit of detectability | miniscule systemic absorption |
